# Measurements taken from patent US11203601B2, “Tricyclic compounds as glycogen synthase kinase 3 (GSK3) inhibitors and uses thereof” (The Broad Institute, Inc., priority 2017, dated 2021).
# Experiments:
# Experiment in all cases: Carna kinome panel
# Format in all cases: biochemical
# PIK3CA/PIK3R1 = PIK3CA/PIK3R1 (Homo sapiens (Human), UniProt P42336)
# Description: (§1) 2) Off-Chip Mobility Shift Assay (MSA).
# CDK3/CycE1 = CDK3/CycE1 (Homo sapiens (Human), UniProt Q00526)
# Description: as §1
# CDK2/CycE1 = CDK2/CycE1 (Homo sapiens (Human), UniProt P24941)
# Description: as §1
# CDK9/CycT1 = CDK9/CycT1 (Homo sapiens (Human), UniProt P50750)
# Sequence of CDK9/CycT1 (P50750 whole entry, looked up): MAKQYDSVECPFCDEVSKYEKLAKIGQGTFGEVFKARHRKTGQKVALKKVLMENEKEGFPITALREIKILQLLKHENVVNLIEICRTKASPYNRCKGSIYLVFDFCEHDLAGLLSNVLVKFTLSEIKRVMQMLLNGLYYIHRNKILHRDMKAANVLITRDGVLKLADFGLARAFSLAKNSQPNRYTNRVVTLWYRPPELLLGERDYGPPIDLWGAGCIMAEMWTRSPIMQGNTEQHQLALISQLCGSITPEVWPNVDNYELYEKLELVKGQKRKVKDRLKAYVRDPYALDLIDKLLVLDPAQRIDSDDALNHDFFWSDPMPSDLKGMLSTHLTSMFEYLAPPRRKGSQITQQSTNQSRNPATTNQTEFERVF
# Sequence of CDK9/CycT1 (O60563 whole entry partner, looked up): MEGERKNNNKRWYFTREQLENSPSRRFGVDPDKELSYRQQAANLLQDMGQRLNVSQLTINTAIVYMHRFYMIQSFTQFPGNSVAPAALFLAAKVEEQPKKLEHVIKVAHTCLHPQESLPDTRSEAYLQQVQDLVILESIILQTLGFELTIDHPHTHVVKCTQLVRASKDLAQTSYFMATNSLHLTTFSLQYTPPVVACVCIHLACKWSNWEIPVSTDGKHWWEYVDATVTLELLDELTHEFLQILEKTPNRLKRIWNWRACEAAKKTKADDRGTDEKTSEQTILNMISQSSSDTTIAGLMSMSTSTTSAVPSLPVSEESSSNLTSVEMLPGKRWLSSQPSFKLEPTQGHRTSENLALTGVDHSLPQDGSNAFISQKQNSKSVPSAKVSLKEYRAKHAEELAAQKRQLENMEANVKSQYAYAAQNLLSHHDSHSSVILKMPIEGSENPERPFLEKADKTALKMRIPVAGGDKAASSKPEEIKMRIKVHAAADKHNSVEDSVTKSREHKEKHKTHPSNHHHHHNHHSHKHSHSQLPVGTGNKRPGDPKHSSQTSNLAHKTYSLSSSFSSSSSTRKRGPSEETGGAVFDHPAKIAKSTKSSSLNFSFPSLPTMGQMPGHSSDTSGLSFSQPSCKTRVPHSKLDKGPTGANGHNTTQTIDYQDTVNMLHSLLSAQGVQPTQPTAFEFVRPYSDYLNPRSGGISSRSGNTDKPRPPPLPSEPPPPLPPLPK
# Description: as §1
# CDK2/CycA2 = CDK2/CycA2 (Homo sapiens (Human), UniProt P24941)
# Description: as §1
# PKACγ = PKACγ (Homo sapiens (Human), UniProt P22612); conditions: read-out: % Inhibition at 10 μM of the test compound
# IKKβ = IKKβ (Homo sapiens (Human), UniProt O14920); conditions: read-out: % Inhibition at 10 μM of the test compound
# MOS_Cascade = MOS_Cascade (Homo sapiens (Human), UniProt P00540); conditions: read-out: % Inhibition at 10 μM of the test compound
# MAP3K5_Cascade = MAP3K5_Cascade (Homo sapiens (Human), UniProt Q99683); conditions: read-out: % Inhibition at 10 μM of the test compound
# ALK = ALK (Homo sapiens (Human), UniProt Q9UM73); conditions: read-out: % Inhibition at 10 μM of the test compound
# MNK1 = MNK1 (Homo sapiens (Human), UniProt Q9BUB5); conditions: read-out: % Inhibition at 10 μM of the test compound
# PLK3 = PLK3 (Homo sapiens (Human), UniProt Q9H4B4); conditions: read-out: % Inhibition at 10 μM of the test compound
# PDHK2 = PDHK2 (Homo sapiens (Human), UniProt Q15119); conditions: read-out: % Inhibition at 10 μM of the test compound
# TYK2 = TYK2 (Homo sapiens (Human), UniProt P29597); conditions: read-out: % Inhibition at 10 μM of the test compound
# MST3 = MST3 (Homo sapiens (Human), UniProt Q9Y6E0); conditions: read-out: % Inhibition at 10 μM of the test compound
# KDR = KDR (Homo sapiens (Human), UniProt P35968); conditions: read-out: % Inhibition at 10 μM of the test compound
# HIPK3 = HIPK3 (Homo sapiens (Human), UniProt Q9H422); conditions: read-out: % Inhibition at 10 μM of the test compound
# EGFR(d746-750/T790M) = EGFR(d746-750/T790M) (Homo sapiens (Human), UniProt P00533, DEL746-750/T790M); conditions: read-out: % Inhibition at 10 μM of the test compound
# TEC = TEC (Homo sapiens (Human), UniProt P42680); conditions: read-out: % Inhibition at 10 μM of the test compound
# Sequence of TEC (P42680 whole entry): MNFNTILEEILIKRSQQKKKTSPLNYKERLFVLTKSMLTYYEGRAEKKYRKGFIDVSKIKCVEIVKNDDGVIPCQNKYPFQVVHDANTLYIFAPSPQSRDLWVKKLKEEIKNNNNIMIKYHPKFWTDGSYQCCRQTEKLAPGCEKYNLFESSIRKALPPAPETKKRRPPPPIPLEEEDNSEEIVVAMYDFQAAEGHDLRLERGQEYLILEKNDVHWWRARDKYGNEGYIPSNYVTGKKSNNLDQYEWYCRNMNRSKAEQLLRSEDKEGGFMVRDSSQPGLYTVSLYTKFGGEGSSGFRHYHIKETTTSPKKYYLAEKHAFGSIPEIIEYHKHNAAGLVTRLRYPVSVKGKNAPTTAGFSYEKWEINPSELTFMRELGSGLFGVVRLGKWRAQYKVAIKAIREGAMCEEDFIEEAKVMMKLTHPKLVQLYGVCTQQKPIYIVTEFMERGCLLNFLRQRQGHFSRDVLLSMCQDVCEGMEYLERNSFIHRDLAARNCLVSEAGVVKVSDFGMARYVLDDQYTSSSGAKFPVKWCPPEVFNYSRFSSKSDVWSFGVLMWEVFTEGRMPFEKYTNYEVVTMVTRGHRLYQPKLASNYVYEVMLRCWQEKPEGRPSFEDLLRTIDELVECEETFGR
# JAK3 = JAK3 (Homo sapiens (Human), UniProt P52333); conditions: read-out: % Inhibition at 10 μM of the test compound
# BLK = BLK (Homo sapiens (Human), UniProt P51451); conditions: read-out: % Inhibition at 10 μM of the test compound
# CK1γ3 = CK1γ3 (Homo sapiens (Human), UniProt Q9Y6M4); conditions: read-out: % Inhibition at 10 μM of the test compound
# FGFR3 = FGFR3 (Homo sapiens (Human), UniProt P22607); conditions: read-out: % Inhibition at 10 μM of the test compound
# PKACα = PKACα (Homo sapiens (Human), UniProt P17612); conditions: read-out: % Inhibition at 10 μM of the test compound
# AKT3 = AKT3 (Homo sapiens (Human), UniProt Q9Y243); conditions: read-out: % Inhibition at 10 μM of the test compound
# PKN1 = PKN1 (Homo sapiens (Human), UniProt Q16512); conditions: read-out: % Inhibition at 10 μM of the test compound
# TSSK1 = TSSK1 (Homo sapiens (Human), UniProt Q9BXA7); conditions: read-out: % Inhibition at 10 μM of the test compound
# Sequence of TSSK1 (Q9BXA7 whole entry): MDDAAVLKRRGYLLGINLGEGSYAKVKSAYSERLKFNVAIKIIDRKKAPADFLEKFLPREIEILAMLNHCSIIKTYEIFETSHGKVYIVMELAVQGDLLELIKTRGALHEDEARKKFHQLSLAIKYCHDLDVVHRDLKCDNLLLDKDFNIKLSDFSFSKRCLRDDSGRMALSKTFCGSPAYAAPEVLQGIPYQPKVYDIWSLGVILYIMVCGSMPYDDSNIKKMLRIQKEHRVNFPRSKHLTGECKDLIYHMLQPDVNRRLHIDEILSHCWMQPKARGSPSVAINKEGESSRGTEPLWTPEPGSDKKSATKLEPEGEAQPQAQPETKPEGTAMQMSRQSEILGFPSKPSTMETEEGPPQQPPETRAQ
# FLT1 = FLT1 (Homo sapiens (Human), UniProt P17948); conditions: read-out: % Inhibition at 10 μM of the test compound
# RAF1_Cascade = test system: RAF1_Cascade
# Description: (§2) Briefly, a selection of compounds was screened against a panel of kinases at a single concentration of 10 μM. […] This was completed using one of two assays, depending on the kinase being examined: 1) IMAP Assay. A solution of 4× inhibitor, 4× substrate/ATP/metal solution and 2× kinase solution was prepared with assay buffer (20 mM HEPES, 0.01% Tween-20, 2 mM DTT, pH 7.4) and mixed, then incubated in 384-well black plates for 1 hour at room temperature. The IMAP binding reagent (IMAP Screening Express kit; Molecular Devices) was added to each well and incubated for 30 minutes. […] 2) Off-Chip Mobility Shift Assay (MSA). A solution of 4× inhibitor, 4× substrate/ATP/metal solution and 2× kinase solution was prepared with assay buffer (20 mM HEPES, 0.01% Triton X-100, 2 mM DTT, pH 7.5) and mixed, then incubated in 384-well plates for 1 or 5 hours depending on the kinase, at room temperature. Termination buffer (QuickScout Screening assist MSA; Carna Biosciences) was added to each well. The entire reaction mixture was then applied to a LabChip3000 system (Caliper Life Science), and the product and substrate peptide peaks were separated and quantified. […] The entire reaction mixture was then applied to a LabChip3000 system (Caliper Life Science), and the product and substrate peptide peaks were separated and quantified.
# COT_Cascade = test system: COT_Cascade
# Description: as §2
# AurB = AurB (Homo sapiens (Human), UniProt Q96GD4); conditions: read-out: % Inhibition at 10 μM of the test compound
# ABL = ABL (Homo sapiens (Human), UniProt P00519); conditions: read-out: % Inhibition at 10 μM of the test compound
# Sequence of ABL (P00519 whole entry): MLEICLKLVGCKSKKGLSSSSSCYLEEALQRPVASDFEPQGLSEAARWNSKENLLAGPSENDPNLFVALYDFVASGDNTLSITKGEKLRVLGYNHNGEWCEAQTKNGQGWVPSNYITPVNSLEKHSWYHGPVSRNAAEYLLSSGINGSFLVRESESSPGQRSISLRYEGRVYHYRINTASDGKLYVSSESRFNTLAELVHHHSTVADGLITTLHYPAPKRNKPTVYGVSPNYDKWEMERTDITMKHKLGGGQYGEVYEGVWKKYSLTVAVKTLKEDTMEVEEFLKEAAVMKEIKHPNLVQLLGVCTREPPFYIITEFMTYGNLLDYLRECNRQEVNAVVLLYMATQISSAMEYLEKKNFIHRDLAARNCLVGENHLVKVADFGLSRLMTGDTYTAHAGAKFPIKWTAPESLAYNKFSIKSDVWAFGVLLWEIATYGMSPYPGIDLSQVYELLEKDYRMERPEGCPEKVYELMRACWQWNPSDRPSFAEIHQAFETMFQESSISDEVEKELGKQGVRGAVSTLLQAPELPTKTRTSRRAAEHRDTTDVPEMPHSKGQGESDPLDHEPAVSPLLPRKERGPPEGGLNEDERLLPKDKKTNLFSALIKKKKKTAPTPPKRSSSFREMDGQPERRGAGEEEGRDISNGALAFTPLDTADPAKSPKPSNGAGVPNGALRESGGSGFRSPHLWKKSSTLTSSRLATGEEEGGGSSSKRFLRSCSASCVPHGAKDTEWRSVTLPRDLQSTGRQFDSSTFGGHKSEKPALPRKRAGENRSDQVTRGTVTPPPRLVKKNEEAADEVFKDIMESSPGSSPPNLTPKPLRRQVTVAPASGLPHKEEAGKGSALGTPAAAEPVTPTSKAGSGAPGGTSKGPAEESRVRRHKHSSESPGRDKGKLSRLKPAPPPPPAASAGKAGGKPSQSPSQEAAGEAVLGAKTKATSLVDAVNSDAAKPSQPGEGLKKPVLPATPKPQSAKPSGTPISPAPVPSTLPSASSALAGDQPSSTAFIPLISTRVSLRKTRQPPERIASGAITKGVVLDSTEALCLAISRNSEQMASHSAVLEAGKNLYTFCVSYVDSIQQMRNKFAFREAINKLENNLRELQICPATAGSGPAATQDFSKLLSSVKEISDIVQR
# MARK2 = MARK2 (Homo sapiens (Human), UniProt Q7KZI7); conditions: read-out: % Inhibition at 10 μM of the test compound
# PDK1 = PDK1 (Homo sapiens (Human), UniProt O15530); conditions: read-out: % Inhibition at 10 μM of the test compound
# MAP2K1_Cascade = test system: MAP2K1_Cascade
# Description: as §2
# MGC42105 = MGC42105 (Homo sapiens (Human), UniProt Q8IY84); conditions: read-out: % Inhibition at 10 μM of the test compound
# PDGFRβ = PDGFRβ (Homo sapiens (Human), UniProt P09619); conditions: read-out: % Inhibition at 10 μM of the test compound
# PDGFRα(T674I) = PDGFRα(T674I) (Homo sapiens (Human), UniProt P16234, T674I); conditions: read-out: % Inhibition at 10 μM of the test compound
# HIPK2 = HIPK2 (Homo sapiens (Human), UniProt Q9H2X6); conditions: read-out: % Inhibition at 10 μM of the test compound
# KIT(D816E) = KIT(D816E) (Homo sapiens (Human), UniProt P10721, D816E); conditions: read-out: % Inhibition at 10 μM of the test compound
# [1] = read-out: % Inhibition at 10 μM of the test compound
# Sequence of PIK3CA/PIK3R1 (P42336 whole entry, looked up): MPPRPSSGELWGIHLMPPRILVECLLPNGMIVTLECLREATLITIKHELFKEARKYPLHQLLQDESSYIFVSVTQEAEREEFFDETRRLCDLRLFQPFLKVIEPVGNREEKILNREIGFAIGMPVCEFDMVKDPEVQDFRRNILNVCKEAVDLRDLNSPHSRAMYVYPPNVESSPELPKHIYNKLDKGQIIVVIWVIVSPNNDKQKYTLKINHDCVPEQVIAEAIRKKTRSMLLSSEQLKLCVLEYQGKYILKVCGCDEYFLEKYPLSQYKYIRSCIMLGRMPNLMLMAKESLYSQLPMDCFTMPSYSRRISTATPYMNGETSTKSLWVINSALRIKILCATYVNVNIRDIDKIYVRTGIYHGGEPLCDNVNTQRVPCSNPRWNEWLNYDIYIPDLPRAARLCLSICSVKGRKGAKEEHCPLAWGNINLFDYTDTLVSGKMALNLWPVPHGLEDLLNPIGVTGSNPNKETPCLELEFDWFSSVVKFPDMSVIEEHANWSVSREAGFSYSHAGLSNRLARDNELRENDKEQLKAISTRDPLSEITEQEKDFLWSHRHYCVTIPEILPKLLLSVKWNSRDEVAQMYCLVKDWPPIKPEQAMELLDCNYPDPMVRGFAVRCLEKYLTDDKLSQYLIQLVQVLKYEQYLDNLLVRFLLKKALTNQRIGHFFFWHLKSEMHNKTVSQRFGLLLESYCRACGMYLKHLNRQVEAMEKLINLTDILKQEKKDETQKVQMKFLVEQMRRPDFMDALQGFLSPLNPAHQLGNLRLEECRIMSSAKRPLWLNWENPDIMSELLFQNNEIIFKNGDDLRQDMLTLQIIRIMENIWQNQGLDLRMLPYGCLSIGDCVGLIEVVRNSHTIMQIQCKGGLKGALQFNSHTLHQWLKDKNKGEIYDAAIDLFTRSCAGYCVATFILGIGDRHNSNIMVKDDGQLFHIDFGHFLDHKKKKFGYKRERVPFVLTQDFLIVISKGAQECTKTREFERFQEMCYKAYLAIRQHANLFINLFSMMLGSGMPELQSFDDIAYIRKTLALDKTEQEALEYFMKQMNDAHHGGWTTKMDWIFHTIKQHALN
# Sequence of PIK3CA/PIK3R1 (P27986 whole entry partner, looked up): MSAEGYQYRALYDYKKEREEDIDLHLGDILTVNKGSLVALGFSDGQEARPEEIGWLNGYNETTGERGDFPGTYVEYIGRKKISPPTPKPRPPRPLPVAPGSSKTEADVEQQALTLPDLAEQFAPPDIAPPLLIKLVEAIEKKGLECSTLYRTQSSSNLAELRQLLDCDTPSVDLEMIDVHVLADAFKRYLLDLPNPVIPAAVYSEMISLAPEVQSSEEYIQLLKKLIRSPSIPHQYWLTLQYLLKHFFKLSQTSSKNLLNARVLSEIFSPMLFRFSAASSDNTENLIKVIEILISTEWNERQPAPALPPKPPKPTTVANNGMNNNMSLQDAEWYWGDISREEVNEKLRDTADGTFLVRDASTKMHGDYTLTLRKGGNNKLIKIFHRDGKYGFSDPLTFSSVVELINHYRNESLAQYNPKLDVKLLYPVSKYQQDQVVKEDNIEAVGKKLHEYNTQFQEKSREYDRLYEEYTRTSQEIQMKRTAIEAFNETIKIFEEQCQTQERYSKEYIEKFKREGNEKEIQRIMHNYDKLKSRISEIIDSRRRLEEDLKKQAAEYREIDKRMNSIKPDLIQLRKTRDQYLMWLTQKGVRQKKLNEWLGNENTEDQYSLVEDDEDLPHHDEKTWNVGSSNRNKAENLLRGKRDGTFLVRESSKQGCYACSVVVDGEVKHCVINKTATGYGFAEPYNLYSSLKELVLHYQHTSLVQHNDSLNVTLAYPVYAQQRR
structure (smiles),measurement,setting,value
"CCC1(c2ccccc2)C2=C(CC(C)(C)CC2=O)Nc2ncsc21 (stereo not drawn) [Compound 1, 9-Ethyl-6,6-dimethyl-9-phenyl-5,6,7,9-tetrahydrothiazolo[4,5-b]quinolin-8(4H)-one]",IC50,PIK3CA/PIK3R1,> 10 µM
same,inhibition at 10 µM,PIK3CA/PIK3R1; [1],65.1%
same,IC50,CDK3/CycE1,6.22 µM
same,inhibition at 10 µM,CDK3/CycE1; [1],55.5%
same,IC50,CDK2/CycE1,8.52 µM
same,inhibition at 10 µM,CDK2/CycE1; [1],53.4%
same,IC50,CDK9/CycT1,6.48 µM
same,inhibition at 10 µM,CDK9/CycT1; [1],60.5%
same,IC50,CDK2/CycA2,6.91 µM
same,inhibition at 10 µM,CDK2/CycA2; [1],58.8%
same,inhibition at 10 µM,PKACγ,-5.6%
same,inhibition at 10 µM,IKKβ,2.3%
same,inhibition at 10 µM,MOS_Cascade,12.4%
same,inhibition at 10 µM,MAP3K5_Cascade,5.4%
same,inhibition at 10 µM,ALK,-3.1%
same,inhibition at 10 µM,MNK1,-3.4%
same,inhibition at 10 µM,PLK3,3.4%
same,inhibition at 10 µM,PDHK2,0.1%
same,inhibition at 10 µM,TYK2,-18.9%
same,inhibition at 10 µM,MST3,1.4%
same,inhibition at 10 µM,KDR,0.2%
same,inhibition at 10 µM,HIPK3,-1.9%
same,inhibition at 10 µM,EGFR(d746-750/T790M),-5.6%
same,inhibition at 10 µM,TEC,-9.1%
same,inhibition at 10 µM,JAK3,6.9%
same,inhibition at 10 µM,BLK,5%
same,inhibition at 10 µM,CK1γ3,1.5%
same,inhibition at 10 µM,FGFR3,1.6%
same,inhibition at 10 µM,PKACα,-0.6%
same,inhibition at 10 µM,AKT3,-4.5%
same,inhibition at 10 µM,PKN1,8.9%
same,inhibition at 10 µM,TSSK1,-5%
same,inhibition at 10 µM,FLT1,6.2%
same,% Inhibition at 10 μM of the test compound,RAF1_Cascade,−6.7%
same,% Inhibition at 10 μM of the test compound,COT_Cascade,−1.5%
same,inhibition at 10 µM,AurB,-0.4%
same,inhibition at 10 µM,ABL,-2.7%
same,inhibition at 10 µM,MARK2,0.4%
same,inhibition at 10 µM,PDK1,-4%
same,% Inhibition at 10 μM of the test compound,MAP2K1_Cascade,−3.2%
same,inhibition at 10 µM,MGC42105,4.3%
same,inhibition at 10 µM,PDGFRβ,2.5%
same,inhibition at 10 µM,PDGFRα(T674I),0.3%
same,inhibition at 10 µM,HIPK2,-2.5%
same,inhibition at 10 µM,KIT(D816E),-0.2%
